This is an account of results in paper PMC8845285, “Serotoninergic receptor ligands improve Tamoxifen effectiveness on breast cancer cells” (BMC Cancer, 2022).

The target of assay [1] is T1, serotonin 5-HT2C receptor (Rattus norvegicus, UniProt P08909).
T1 construct: serotonin 5-HT2C receptor, [^3H]mesulergine, rat brain cortex; from tissue; host or cells: rat brain cortex
T1 sequence (P08909 33-460): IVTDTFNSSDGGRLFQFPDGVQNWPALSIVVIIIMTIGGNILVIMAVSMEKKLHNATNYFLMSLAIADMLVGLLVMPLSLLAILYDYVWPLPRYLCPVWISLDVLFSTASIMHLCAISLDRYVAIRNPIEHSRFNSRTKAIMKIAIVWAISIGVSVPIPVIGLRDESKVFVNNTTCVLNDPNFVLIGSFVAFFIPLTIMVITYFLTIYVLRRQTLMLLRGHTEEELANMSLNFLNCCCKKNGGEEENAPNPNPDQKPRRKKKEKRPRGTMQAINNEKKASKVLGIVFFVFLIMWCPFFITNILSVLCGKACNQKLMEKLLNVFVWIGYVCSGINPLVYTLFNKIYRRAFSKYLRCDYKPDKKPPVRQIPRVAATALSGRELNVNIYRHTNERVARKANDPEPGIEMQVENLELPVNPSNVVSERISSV
As to the kind of experiment: radioligand binding assay, 5-HT2C, [3H]mesulergine. As to conditions: rat brain cortex; read-out: Ki ± SD, 5-HT2C [3H]Mesulergine. As for the experimental part: All reactions were monitored by TLC, carried out on Merck 60G F254 plates with fluorescent indicator and the plates were visualized with UV light (254 nm). Each final compound and intermediate was purified by silica gel column chromatography (Macherey-Nagel 60 0,063–0,2 mm/70–230 mesh). […] Unless otherwise stated, all spectra were recorded in CDCl3. Chemical shifts are reported in ppm using Me4Si as internal standard. The following abbreviations are used to describe peak patterns when appropriate: s (singlet), d (doublet), t (triplet), m (multiplet), q (quartet), qt (quintet), dd (double doublet), ddd (double dd), bs (broad singlet). Mass spectra of the final products were performed on LTQ Orbitrap XL™ Fourier transform mass spectrometer (FTMS) equipped with ESI ION MAX™ source (Thermo Fisher, San José, USA). Melting points were determined using a Buchi B-540 hot-stage instrument and are uncorrected. […] All the compounds were dissolved in 5% DMSO. The following specific radioligands and tissue sources were used: (a)serotonin 5-HT1A receptor, [^3H]-8-OH-DPAT, rat brain cortex; (b) serotonin 5-HT2A receptor, [^3H]ketanserin, rat brain cortex; (c)serotonin 5-HT2C receptor, [^3H]mesulergine, rat brain cortex. Non-specific binding was determined as described in the experimental section, and specific binding as the difference between total and non-specific binding. […] The IC50 values obtained were used to calculate apparent inhibition constants (Ki) by the method of Cheng and Prussoff, from the following equation: Ki = IC50/(1 + S/KD) where S represents the concentration of the hot ligand used and KD its receptor dissociation constant (KD values, obtained by Scatchard analysis, were calculated for each labeled ligand). Radioligand binding assays for 5-HT1A were performed following a published procedure. 5-HT2A and 5-HT2C binding assays were performed reported by Herndon et al..

The subject of assay [2] is MCF7-R cells. Briefly: Tamoxifen-resistant MCF7-R cell viability, sulforhodamine B assay. It is filed as cell-based, human. As to conditions: SER 20 μM; for effect on MCF7-R cells if used alone (viability): E2 100 nM, 72 h; for effect on viability of MCF7-R cells in co-treatment with Tamoxifen: Tamoxifen 5 μM, E2, 72 h. As for the experimental part:
Cells were fixed with 50% trichloroacetic acid for at least 2 h at 4 °C, washed with distilled and de-ionized water, air-dryed and stained 30 min with 0.4% sulforhodamine B in 1% acetic acid. Unbound dye was removed and 10 mM tris-HCl solution (pH 7.5) was added to dissolve the protein-bound dye. Cell survival was assessed by optical density determination at 510 nm using a microplate reader.
MCF7 cells were cultured for 4 months in phenol-red free medium supplemented with 10% (C/S) FBS and continuously exposed to Tamoxifen (1 μM). […] To further validate the degree of drug resistance, the expression levels of ABCC1, ABCG1 and ABCG2 – members of ABC transporter family known as involved in multi-drug resistance – were evaluated by Quantitative Real-Time PCR (qPCR; see below) upon cell treatment with 5 μM Tamoxifen for 72 h.
Fig. 9 Effect of SER79 and SER68 on Tamoxifen-resistant (MCF7-R) cells. a Estrogen starved MCF7-R were treated with SER79 (20 μM, 5 μM) or SER68 (20 μM) in presence of E2 (100 nM). b Estrogen-starved MCF7-R were treated with Tamoxifen (5 μM) in presence of E2 and SER79 (20 μM) or SER68 (20 μM). a,b As positive control, the cells were treated with E2 alone, in absence or in presence of SER (dotted line). After 72 h, cell viability was assessed by sulforhodamine B assay (see Methods). The results were reported as percentage of viable cells compared to positive control, considered as maximum viability (100%). c mRNA levels of CTGF were determined by qPCR (see Methods and Table 1) in MCF7-R cells upon treatment with SER68 (20 μM). Data were normalized on Ribosomal Protein S23 (Rps23) gene as internal standard and reported as CTGF mRNA levels in MCF7-R. a-c Graphs represent the mean ± SD of at least three independent triplicate experiments. * denotes statistically significant values compared with (b) positive control or (c) MCF7 cells (*adjp<0.05; **adjp<0.001). # denotes statistically significant values compared with untreated MCF7-R (#pval<0.05) […]
Figure S3. Establishment of MCF7 Tamoxifen re sista n t(M C F7-R) cells. MCF7 cells were cultured with Tamoxifen (1µM), in absence of E2, for 4 months (M C F7-R). (a-b) MCF7 and MCF7-R cells were treated with in c re a s in gconcentration of Tamoxifen […]
As positive control, cells were treated with E2 alone. Cell viability was measured by sulforhodamine B assay (se e Methods). The re su ltswere re p o rte das percentage of viable cells compared to untreated cells, considered as maximum viability (100%). […]
(a ) * denotes statistically significant values compared with untreated cells […]
(§1) (1 picture or pasted object on this page, not shown here)
A general note: Sulforhodamine B stains cellular protein and so reports cell mass.

Assay [3] concerns HT2C receptor. As to the kind of experiment: 5-HT2C protein levels, Western blot. As to conditions: 72 h, MCF7, Tamoxifen-cultured MCF7 and MCF7-R cells. It is filed as cell-based, human. As for the experimental part: RIPA buffer (Promega, Madison, Wisconsin, USA) was used for proteins’ extraction. Lysates ([…] protein/sample) were blotted with anti-5HT2C (1:500). Total lysates were normalized using anti-Vinculin (1:10000). The autoradiographs shown were obtained by ECL kit (Bio-Rad, Hercules, CA, USA).
Figure S4. 5-HT2C protein in MCF7, Tamoxifen-cultured MCF7 and MCF-R cells in absence or in presence of SER.
Cells were treated with 5µM SER79 or 20µM SER68. Alter 72h, cell lysa te swere obtained and 5-HT2C protein le ve lswere measured by western blot analysis. Vinculin was used for protein le ve ls normalization. […]
as §1
(In general: A western blot detects proteins with antibodies after separation by electrophoresis.)

The structures appear in SMILES notation.

For orientation: Ki means the equilibrium dissociation constant of an inhibitor or competing ligand from its target. Consider `N#CN=C(NCCCN1CCN(C(c2ccc(F)cc2)c2ccc(F)cc2)CC1)c1ccccn1` [SER79], for which the Ki in assay [1] stood at 21.4 ± 1.22 nM. In assay [2], the “effect on MCF7-R cells if used alone (viability)” value is reported as “neither” and the “effect on viability of MCF7-R cells in co-treatment with Tamoxifen” value is recorded as “No significant effect”. Also, the “change in protein levels of HT2C receptors upon SER treatment” value in assay [3] (5 µM) is listed as “no difference in protein levels”.
For `O=C1C2C3C=CC(C3)C2C(=O)N1OCCN1CCN(c2ccc(Cl)c(Cl)c2)CC1` (centres unmarked) [SER68], the Ki in assay [1] was found to be 1.13 ± 0.16 nM. Besides, in assay [2], the “effect on MCF7-R cells if used alone (viability)” value is reported as “neither” and the “effect on viability of MCF7-R cells in co-treatment with Tamoxifen” value was “significantly reduced viability”. Also, the “change in protein levels of HT2C receptors upon SER treatment” value in assay [3] (20 µM) is on record as “no difference in protein levels”.
